# According to patent US20200123422A1, “Photocurable Adhesive Sheet, Image Display Device Constituent Laminate, Image Display Device Production Method and Method for Preventing Corrosion of Conductive Member” (Mitsubishi Chemical Corporation, priority 2017, published 2020):
# Columns and labels:
# [1] = Absorption coefficient at a wavelength of 365 nm; format: physicochemical; details: at 365 nm
# From the text: The absorption coefficient can be determined by the following formula.
# α365: absorption coefficient at a wavelength of 365 nm [mL/(g·cm)]
# A365: absorbance at a wavelength of 365 nm
# c: solution concentration [g/mL]
# d: optical path length (of quartz cell) [cm]
# In addition, when calculating the absorption coefficient, an absorbance converted from the measurement result of the transmittance may also be used.
# T365: light transmittance at a wavelength of 365 nm [%]
# Aqueous solubility = format: physicochemical
# Description: From such a viewpoint, the metal corrosion inhibitor preferably has an aqueous solubility at 25° C. of 20 g/L or more, more preferably 50 g/L or more, particularly preferably 100 g/L or more.
"solubility (Aqueous solubility; water, 25 °C) [mg/mL]",Structure (SMILES),absorption coefficient [1] [mL/g/cm],aqueous solubility (Aqueous solubility)
–,"c1c[nH]nn1 [Example D-1, 1,2,3-triazole]",0.3,"> 1,000 g/L"
–,"c1nc[nH]n1 [Example D-2, 1,2,4-triazole]",0.3,"> 1,000 g/L"
–,"c1ccc2[nH]nnc2c1 [Example D-3, 1,2,3-benzotriazole]",0.8,20 g/L
20,"Sc1nnc(S)s1 [Example D-4, 2,5-dimercapto-1,3,4-thiadiazole, reference compound]",90,–
–,"S=c1[nH]c2ccccc2s1 [Example D-5, mercaptobenzothiazole, reference compound]",65,0.3 g/L
